Data set [1] has as its system HCT116 cells and MKN45 cells. As to the kind of experiment: Test C: measurement of cell proliferation by 14C-thymidine pulse. Type of data set: cell-based. Conditions: 14C-thymidine incorporation, 96 h of treatment; cell line not stated (HCT116 and MKN45 in method). On the procedure: C) Test C: Measurement of cell proliferation by ^14C-thymidine pulse
The cells are seeded into Cytostar 96-well plates in 180 μl for 4 hours at 37° C. and 5% CO2: HCT116 cells at a rate of 2500 cells per well in DMEM medium+10% foetal calf serum+1% L-glutamine and MKN45 cells at a rate of 7500 cells per well in RPMI medium+10% foetal calf serum+1% L-glutamine. After these 4 hours of incubation, the products are added in 10 μl as a 20-fold concentrated solution according to the dilution method mentioned for the ELISA. The products are tested at 10 concentrations in duplicate from 10 000 nM to 0.3 nM with an increment of 3.
After treatment for 72 h, add 10 μl of ^14C-thymidine at 10 μCi/ml to obtain 0.1 μCi per well. The ^14C-thymidine incorporation is measured on a Micro-Beta machine (Perkin-Elmer) after 24 hours of pulse and 96 h of treatment.
All the stages of the assay are automated on BIOMEK 2000 or TECAN stations.
A general note: Incorporation of labelled thymidine or its analogues reports DNA synthesis.

Data set [2] deals with T1, MET (Homo sapiens, UniProt P08581). As to the kind of experiment: Test B: inhibition of the autophosphorylation of MET, ELISA technique (pppY1230, 1234, 1235) in MKN45 cells. Type of data set: cell-based. The arrangement: endogenous in cells; host or cells: MKN45 cells. Conditions: 1 h treatment, phosphoMET ELISA. The procedure: B) Test B: Inhibition of the Autophosphorylation of MET; ELISA Technique (pppY1230, 1234, 1235)
a) Cell lysates: Seed MKN45 cells into 96-well plates (Cell coat BD polylysine) at 20 000 cells/well in 200 μl in RPMI medium+10% FCS+1% L-glutamine. Leave to adhere for 24 hours in an incubator.
The cells are treated the day after seeding with the products at 6 concentrations in duplicate for 1 h. At least 3 control wells are treated with the same final amount of DMSO.
Product dilution: Stock at 10 mM in pure DMSO—range from 10 mM to 30 μM with an increment of 3 in pure DMSO—intermediate 1/50 dilutions in culture medium and then removal of 10 μl added directly to the cells (200 μl): final range from 10 000 to 30 nM.
At the end of the incubation, carefully remove the supernatant and rinse with 200 μl of PBS. Next, place 100 μl of lysis buffer directly in the wells on ice and incubate at 4° C. for 30 minutes. Lysis buffer: 10 mM Tris HCl, pH 7.4, 100 mM NaCl, 1 mM EDTA, 1 mM EGTA, 1% Triton X-100, 10% glycerol, 0.1% SDS, 0.5% deoxycholate, 20 mM NaF, 2 mM Na3VO4, 1 mM PMSF and cocktail of antiproteases.
The 100 μl of lysates are transferred into a V-bottomed polypropylene plate and the ELISA is performed immediately, or the plate is frozen at −80° C.
b) PhosphoMET ELISA BioSource Kit KH00281
Into each well of the kit plate, add 70 μl of kit dilution buffer+30 μl of cell lysate or 30 μl of lysis buffer for the blanks. Incubate for 2 h with gentle agitation at ambient temperature.
Rinse the wells 4 times with 400 μl of kit washing buffer. Incubate with 100 μl of anti-phospho MET antibody for 1 hour at ambient temperature.
Rinse the wells 4 times with 400 μl of kit washing buffer. Incubate with 100 μl of anti-rabbit HRP antibody for 30 minutes at ambient temperature (except for the wells of chromogen alone).
Rinse the wells 4 times with 400 μl of kit washing buffer. Introduce 100 μl of chromogen and incubate for 30 minutes in the dark at ambient temperature.
Stop the reaction with 100 μl of stop solution. Read without delay at […], 0.1 second on Wallac Victor plate reader.
Target sequence in this assay (P08581 25-1390): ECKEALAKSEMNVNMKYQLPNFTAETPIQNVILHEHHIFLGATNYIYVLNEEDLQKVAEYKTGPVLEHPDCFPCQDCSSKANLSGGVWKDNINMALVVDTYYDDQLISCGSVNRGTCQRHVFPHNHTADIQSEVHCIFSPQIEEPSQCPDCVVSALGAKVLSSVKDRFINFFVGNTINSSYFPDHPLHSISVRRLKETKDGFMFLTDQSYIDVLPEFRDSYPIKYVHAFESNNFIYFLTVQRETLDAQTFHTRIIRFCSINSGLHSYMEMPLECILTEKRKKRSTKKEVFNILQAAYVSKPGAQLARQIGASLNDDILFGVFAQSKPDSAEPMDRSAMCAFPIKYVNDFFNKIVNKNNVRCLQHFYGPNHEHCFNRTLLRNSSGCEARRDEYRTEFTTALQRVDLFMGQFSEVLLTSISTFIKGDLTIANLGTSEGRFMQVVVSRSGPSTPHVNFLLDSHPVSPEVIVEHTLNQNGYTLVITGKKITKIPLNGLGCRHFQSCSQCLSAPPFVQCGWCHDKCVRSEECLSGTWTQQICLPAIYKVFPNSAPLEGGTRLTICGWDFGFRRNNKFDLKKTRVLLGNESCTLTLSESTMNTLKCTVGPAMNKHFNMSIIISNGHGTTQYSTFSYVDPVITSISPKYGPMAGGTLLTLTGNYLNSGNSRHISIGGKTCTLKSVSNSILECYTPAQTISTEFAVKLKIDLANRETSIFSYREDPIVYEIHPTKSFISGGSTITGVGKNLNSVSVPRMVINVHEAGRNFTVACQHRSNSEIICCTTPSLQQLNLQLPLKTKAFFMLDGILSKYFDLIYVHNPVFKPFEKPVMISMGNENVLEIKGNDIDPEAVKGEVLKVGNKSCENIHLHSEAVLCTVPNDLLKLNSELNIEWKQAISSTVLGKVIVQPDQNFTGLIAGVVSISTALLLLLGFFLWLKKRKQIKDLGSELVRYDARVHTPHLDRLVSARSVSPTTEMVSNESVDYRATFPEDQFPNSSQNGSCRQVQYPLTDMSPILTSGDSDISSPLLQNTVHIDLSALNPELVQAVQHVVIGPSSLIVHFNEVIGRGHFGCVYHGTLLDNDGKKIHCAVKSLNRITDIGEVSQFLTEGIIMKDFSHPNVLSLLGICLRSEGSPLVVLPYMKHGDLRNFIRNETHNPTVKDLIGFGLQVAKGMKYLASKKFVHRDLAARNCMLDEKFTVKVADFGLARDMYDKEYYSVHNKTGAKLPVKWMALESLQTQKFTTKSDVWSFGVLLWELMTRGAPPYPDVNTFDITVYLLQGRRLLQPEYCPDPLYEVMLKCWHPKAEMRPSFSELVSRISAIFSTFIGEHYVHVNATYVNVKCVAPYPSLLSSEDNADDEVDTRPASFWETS

Data set [3] addresses T1, MET. As to the kind of experiment: Test A: HTRF MET assay in 96-well format. Particulars: 5 nM MET, 10 μM ATP. Type of data set: biochemical. The arrangement: The His-Tev-MET (956-1390) recombinant DNA in pFastBac (Invitrogen) is transfected into insect cells; His (N, cleaved yes); Tev cleavage site (N, cleaved yes); made in house; host or cells: SF21 insect cells (baculovirus, pFastBac). The procedure: I) Expression and Purification of MET, Cytoplasmic Domain
The His-Tev-MET (956-1390) recombinant DNA in pFastBac (Invitrogen) is transfected into insect cells and, after several viral amplification stages, the final baculovirus stock is tested for the expression of the protein of interest.
After infection for 72 h at 27° C. with the recombinant virus, the SF21 cell cultures are harvested by centrifugation and the cell pellets are stored at −80° C.
The cell pellets are resuspended in lysis buffer (buffer A [50 mM HEPES, pH 7.5, 250 mM NaCl, 10% glycerol, 1 mM TECP]; + cocktail of protease inhibitors, Roche Diagnostics, without EDTA, ref. 1873580), stirred at 4° C. until the mixture is homogeneous and then lysed mechanically using a “Dounce” type apparatus.
After centrifugation, the lysis supernatant is incubated for 2 h at 4° C. with nickel chelate resin (His-Trap 6 Fast Flow™, GE HealthCare). After washing with 20 volumes of buffer A, the suspension is packed into a column, and the proteins are eluted with a gradient of buffer B (buffer A+290 mM imidazole).
The fractions comprising the protein of interest for the purpose of electrophoretic analysis (SDS PAGE) are combined, concentrated by ultrafiltration (10 kDa cut-off) and injected onto an exclusion chromatography column (Superdex™ 200, GE HealthCare) equilibrated in buffer A.
After enzymatic cleavage of the histidine tag, the protein is reinjected onto a new IMAC nickel chelate chromatography column (His-Trap 6 Fast Flow™, GE HealthCare) equilibrated in buffer A. The fractions eluted with a gradient of buffer B and comprising the protein of interest after electrophoresis (SDS PAGE) are finally combined and conserved at −80° C.
For the production of autophosphorylated protein, the previous fractions are incubated for 1 h at ambient temperature after the addition of 2 mM ATP, 2 mM MgCl2, and 4 mM Na3VO4. After the reaction has been stopped with 5 mM of EDTA, the reaction mixture is injected onto a HiPrep desalifying column (GE HealthCare) preequilibrated in buffer A+4 mM Na3VO4, and the fractions comprising the protein of interest (SDS PAGE analysis) are combined and stored at −80° C. The degree of phosphorylation is verified by mass spectrometry (LC-MS) and by peptide mapping.
A) Test A: HTRF MET Assay in 96-Well Format
MET at a final concentration of 5 nM is incubated in a final volume of 50 μl of enzymatic reaction in the presence of the test molecule (for a final concentration range of from 0.17 nM to 10 μM, 3% DMSO final concentration) in 10 mM MOPS buffer, pH 7.4, 1 mM DTT, 0.01% Tween 20. The reaction is initiated with the substrate solution to obtain final concentrations of 1 μg/ml poly-(GAT), 10 μM ATP and 5 mM MgCl2. After incubation for 10 min at ambient temperature, the reaction is stopped with a 30 μl mix so as to obtain a final solution of 50 mM Hepes, pH 7.5, 500 mM potassium fluoride, 0.1% BSA and 133 mM EDTA in the presence of 80 ng of streptavidin 61SAXLB Cis-Bio Int. and 18 ng of anti-phosphotyrosine Mab PT66-Europium Cryptate per well. After incubation for 2 hours at ambient temperature, the reading is taken at 2 wavelengths, 620 nm and 665 nm, on a reader for the TRACE/HTRF technique and the % inhibition is calculated from the 665/620 ratios.
Target sequence in this assay (P08581 956-1390): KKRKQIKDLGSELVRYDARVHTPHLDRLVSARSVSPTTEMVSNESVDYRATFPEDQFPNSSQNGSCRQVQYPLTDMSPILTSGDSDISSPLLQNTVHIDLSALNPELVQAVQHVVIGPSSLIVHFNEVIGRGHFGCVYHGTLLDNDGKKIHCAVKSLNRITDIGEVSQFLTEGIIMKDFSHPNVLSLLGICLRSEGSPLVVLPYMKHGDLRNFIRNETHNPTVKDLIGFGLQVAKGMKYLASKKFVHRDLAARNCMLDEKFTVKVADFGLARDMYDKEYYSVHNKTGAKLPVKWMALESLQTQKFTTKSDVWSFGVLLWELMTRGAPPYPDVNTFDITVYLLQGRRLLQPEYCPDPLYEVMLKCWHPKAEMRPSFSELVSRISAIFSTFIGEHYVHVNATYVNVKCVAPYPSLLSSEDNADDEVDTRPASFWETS

A word on the IC50: it is the point on the concentration scale where inhibition reaches its midpoint. As a reminder, the melting point is the temperature, or range, at which the solid turns liquid. In the case of `O=C(NCCN1CCOCC1)Nc1nc2ccc(Sc3cnc4ncccn34)cc2s1` [Example 4, 1-[6-(imidazo[1,2-a]pyrimidin-3-ylsulphanyl)-1,3-benzothiazol-2-yl]-3-[2-(morpholin-4-yl)ethyl]urea], the melting point is over 260 °C. The IC50 in data set [1] was under 1 µM. For the same compound, at MET [2], the IC50 was under 0.1 µM. In addition, at MET [3], the IC50 is under 0.1 µM.

Compound `O=C(NCCN1CCCC1)Nc1nc2ccc(Sc3cnc4ncccn34)cc2s1` [Example 5, 1-[6-(imidazo[1,2-a]pyrimidin-3-ylsulphanyl)-1,3-benzothiazol-2-yl]-3-[2-(pyrrolidin-1-yl)ethyl]urea] had a melting point of over 260 °C. The IC50 in data set [1] was under 1 µM. This compound also displayed an IC50 on MET [2] of under 0.1 µM. Moreover, the IC50 on MET [3] is under 0.1 µM.

For `O=C(Nc1nc2ccc(S(=O)(=O)c3cnc4ncccn34)cc2s1)C1CC1` [Example 7, N-[6-(imidazo[1,2-a]pyrimidin-3-ylsulphonyl)-1,3-benzothiazol-2-yl]cyclopropanecarboxamide], the melting point came out at 232 °C. In data set [1], the IC50 is under 1 µM. This compound also gave an IC50 at MET [2] of under 0.1 µM. The IC50 at MET [3] was under 0.1 µM.

As for `O=C(CCN1CCCC1)Nc1nc2ccc(Sc3cnc4ncccn34)cc2s1` [Example 8, N-[6-(imidazo[1,2-a]pyrimidin-3-ylsulphanyl)-1,3-benzothiazol-2-yl]-3-(pyrrolidin-1-yl)propanamide], the melting point was determined as 247 °C. Further, the IC50 in data set [1] is under 1 µM. On MET [2], this compound registered an IC50 of under 0.1 µM. Besides, the IC50 at MET [3] is under 0.1 µM.

For `CC(C)(C)OC(=O)NCC(=O)Nc1nc2ccc(Sc3cnc4ncccn34)cc2s1` [Example 11, 2-methylpropan-2-yl(2-{[6-(imidazo[1,2-a]pyrimidin-3-ylsulphanyl)-1,3-benzothiazol-2-yl]amino}-2-oxoethyl)carbamate], the melting point is over 260 °C. This compound also had an IC50 in data set [1] of under 1 µM. Moreover, the IC50 on MET [2] was under 0.5 µM. For the same compound, the IC50 on MET [3] was under 0.1 µM.

As for `CCN1CCN(CC(=O)Nc2nc3ccc(Sc4cnc5ncccn45)cc3s2)CC1` [Example 15, 2-(4-ethylpiperazin-1-yl)-N-[6-(imidazo[1,2-a]pyrimidin-3-ylsulphanyl)-1,3-benzothiazol-2-yl]acetamide], the melting point was found to be 210 °C. This compound also showed an IC50 in data set [1] of under 1 µM. On MET [2], the half-maximal inhibitory concentration (IC50) is under 0.1 µM. Moreover, the IC50 on MET [3] is under 0.1 µM.

Regarding `O=C(CN1CCN(C2CC2)CC1)Nc1nc2ccc(Sc3cnc4ncccn34)cc2s1` [Example 16, 2-(4-cyclopropylpiperazin-1-yl)-N-[6-(imidazo[1,2-a]pyrimidin-3-ylsulphanyl)-1,3-benzothiazol-2-yl]acetamide], the melting point was found to be 224 °C. In data set [1], this compound yielded an IC50 of under 1 µM. The IC50 on MET [2] is under 0.1 µM. Moreover, the IC50 on MET [3] was under 0.1 µM.

Compound `CCN(CC)CC(=O)Nc1nc2ccc(Sc3cnc4ncccn34)cc2s1` [Example 17, N2,N2-diethyl-N-[6-(imidazo[1,2-a]pyrimidin-3-ylsulphanyl)-1,3-benzothiazol-2-yl]glycinamide] yielded a melting point of 180 °C. This compound also had an IC50 in data set [1] of under 1 µM. Besides, on MET [2], the IC50 is under 0.5 µM. In addition, the IC50 on MET [3] is under 0.1 µM.

In the case of `O=C(Nc1nc2cc(F)c(Sc3cnc4ncccn34)cc2s1)C1CC1` [Example 18, N-[5-fluoro-6-(imidazo[1,2-a]pyrimidin-3-ylsulphanyl)-1,3-benzothiazol-2-yl]cyclopropanecarboxamide], the melting point was over 260 °C. This compound yielded an IC50 in data set [1] of under 1 µM. Moreover, at MET [2], the IC50 was under 0.1 µM. The IC50 on MET [3] was under 0.1 µM.

With `Nc1nc2cc(F)c(Sc3cnc4ncccn34)cc2s1` [Example 19, 5-fluoro-6-(imidazo[1,2-a]pyrimidin-3-ylsulphanyl)-1,3-benzothiazol-2-amine], the melting point was over 264 °C. For the same compound, in data set [1], the IC50 was under 1 µM. The same compound showed a half-inhibitory concentration (IC50) at MET [2] of under 0.1 µM. Besides, the IC50 at MET [3] is under 0.1 µM.

As to `COCCC(=O)Nc1nc2ccc(Sc3cnc4ncccn34)cc2s1` [Example 20, N-[6-(imidazo[1,2-a]pyrimidin-3-ylsulphanyl)-1,3-benzothiazol-2-yl]-3-methoxypropanamide], the melting point was found to be 225 °C. The IC50 in data set [1] was under 1 µM. Besides, the IC50 against MET [2] was under 0.1 µM. Besides, the IC50 on MET [3] was under 0.1 µM.

Compound `Nc1ccn2c(Sc3ccc4nc(NC(=O)C5CC5)sc4c3)cnc2n1` [Example 22, N-{6-[(7-aminoimidazo[1,2-a]pyrimidin-3-yl)sulphanyl]-1,3-benzothiazol-2-yl}cyclopropanecarboxamide] gave a melting point of over 264 °C. This compound showed an IC50 in data set [1] of under 1 µM. The IC50 on MET [2] was under 0.1 µM. The IC50 on MET [3] is under 0.1 µM.

(Values after US20110263593A1, “NOVEL IMIDAZO[1,2-a]PYRIMIDINE DERIVATIVES, METHOD FOR THE PREPARATION THEREOF, USE THEREOF AS MEDICAMENTS, PHARMACEUTICAL COMPOSITIONS AND NOVEL USE, IN PARTICULAR AS MET INHIBITORS” (sanofi-aventis, priority 2008, published 2011).)
